# Results published in paper PMC3454376, “Salidroside Improves Behavioral and Histological Outcomes and Reduces Apoptosis via PI3K/Akt Signaling after Experimental Traumatic Brain Injury” (PLoS ONE, 2012).
# Where two headings read alike, the source gives them in different places.
# What was measured:
# [1] = system: mice subjected to controlled cortical impact injury; experiment: Beam walk test after CCI; type: in vivo
# Description: All animal procedures were approved by the Animal Research Committee at Cheng Hsin General Hospital (Animal permit number […] 101-08), and all procedures complied with the Guide for the Care and Use of Laboratory Animals published by the US National Institutes of Health (NIH Publication No. 85-23, revised 1996). Animals were housed under a 12-h light/dark cycle and at constant temperature (21-25°C) and humidity (45-50%). They were allowed free access to pellet chow and water. TBI in mice was induced by a CCI injury model as previously described. Briefly, 8-week-old male C57BL/6 mice (weighing 22-25 g) were anesthetized through the use of intraperitoneal injection of sodium pentobarbital (65 mg/kg; Rhone Merieux, Harlow, UK) and placed in a stereotaxic frame. A 5 mm craniotomy was performed over the right parietal cortex, centered on the coronal suture and 0.1 mm lateral to the sagittal suture, and injury to dura was avoided. […] Body temperature was monitored throughout the surgery by a rectal probe; temperature was maintained at 37.0±0.5°C using a heated pad. […] To determine the optimal dose of salidroside, a pilot study was performed using 2 different doses (20 and 50 mg/kg) administered 10 min after injury, and neurological deficits and tissue damage were evaluated as the main outcomes. […]
# [2] = parameters: method as in PMID 17631426; details: rats, cited from earlier work
compound,measurement,setting,value
"OC[C@H]1O[C@@H](OCCc2ccc(O)cc2)[C@H](O)[C@@H](O)[C@@H]1O [SALD, salidroside]",beam walk latency versus vehicle group,"[1]; 20 mg/kg ip 10 min after CCI, days 4 and 21, P<0.05 and 0.01",significant difference
same,"beam walk latency, treatment effect versus vehicle","[1]; 50 mg/kg ip 10 min after CCI, P<0.05",significant only at day 4
same,mean elimination half-life (t1/2),[2]; intravenous administration,around 0.5 h
same,mean elimination half-life (t1/2),[2]; oral administration,~1.1 h
